In article PMC5786306, “An AKAP-Lbc-RhoA interaction inhibitor promotes the translocation of aquaporin-2 to the plasma membrane of renal collecting duct principal cells” (PLoS ONE, 2018):
One block for each molecule: values may come before it.

What was measured:
[1] = test system: hypercholesterolemic patients; set-up: method as in PMID 26575415, PMID 21858457; conditions: cited from earlier work
[2] = test system: AQP2 insertion into the plasma membrane of IMCD cells; test: Biotinylation of cell surface proteins; type: cell-based, rat; conditions: Scaff10-8 30 μM, 1 or 24 h, forskolin 30 μM, 30 min
Experimental: The assay was performed according to Bogum et al.. IMCD cells were treated with Scaff10-8 at a concentration of 30 μM for 1 or 24 h (0.3% DMSO final concentration). DMSO (0.3%) was used as a control for the 24 h of incubation. Cells were stimulated with forskolin (30 min, 30 μM). Cells were washed twice with ice-cold PBS and incubated with biotinylation buffer (500 μg Biotin per well; 10 mM triethanolamine; 150 mM NaCl; 1 mM MgCl2; 0.1 mM CaCl2; pH 8.0) for 60 min at 4°C. After two washing steps with biotinylation buffer, cells were incubated for 10 min with quenching buffer (50 mM NH4Cl in PBS) at 4°C. Lysates were prepared using biotinylation lysis buffer 1 (SLB; 0.5% Triton X-100; 0.2% BSA; Complete mini EDTA-free). Lysates were sonicated and incubated for 20 min at 37°C. Cell debris was removed by centrifugation (30 min, 15,000x g, 4°C). Lysates were incubated with 80 μl streptavidin agarose beads at 4°C overnight. Beads were washed three times with biotinylation lysis buffer 1 and 2 (SLB; 0.5% Triton X-100; Complete mini EDTA-free). Proteins were eluted using sample buffer and analyzed by Western blotting.
(A) IMCD cells were treated with either compound (30 μM) or DMSO for 1 or 24 h. Membrane proteins were biotinylated followed by precipitation with streptavidin agarose beads. […] (B) Signals from A were quantified by densitometric analysis. […]

[3] = test system: AQP2 localization and F-actin in primary IMCD cells; test: Immunofluorescence microscopy of AQP2 and F-actin in primary IMCD cells; type: cell-based, rat
Description: Primary rat renal inner medullary collecting duct (IMCD) cells were obtained and cultured as previously described. AQP2 was detected with specific rabbit (H27 antibody) and secondary Cy3-coupled antibodies, and F-actin was visualized with Alexa Fluor 647-Phalloidin by laser scanning microscopy (LSM780; Zeiss Jena, Germany) as described.
Fig 8 Scaff10-8 promotes the redistribution of AQP2 to the plasma membrane of primary IMCD cells, which is independent of cAMP elevation and associated with depolymerization of F-actin. (A) Upper panel. IMCD cells were treated with DMSO (1%; control), the solvent of Scaff10-8, or forskolin (10 μM, 30 min) to stimulate cAMP synthesis. Lower panels: The cells were treated for 1 hour with Scaff10-8 (30 μM) alone (control) or with Scaff10-8 and forskolin. Forskolin (10 μM) was added for the final 30 min of Scaff10-8 incubation. AQP2 (green) was detected with specific primary and Cy3-coupled secondary antibodies, F-actin (red) with Alexa Fluor 647-Phalloidin and nuclei with DAPI (blue). Signals were visualized using a laser scanning microscope. Representative images are shown. n = 3. The magnified views were derived from the indicated boxes. (B) The signal intensities arising from intracellular and plasma membrane AQP2 were recorded, related to nuclear signal intensities, and the ratios of plasma membrane to intracellular fluorescence signal intensities were calculated (n = 30 cells per condition). Ratios > 1 indicate a predominant localization of AQP2 at the plasma membrane. Statistically significant differences were calculated using one-way ANOVA with posthoc Bonferroni. Mean ± SEM; *, p ≤ 0.05; *** p ≤ 0.001.

untagged RhoA = target: T1, untagged RhoA (human, UniProt P61586 1-193); test: MST; GFP-AKAP-Lbc/DHPH constant at 150 nM, unlabeled RhoA titrated 36.01 nM-590 uM in MST buffer; 1 h at room temperature; Monolith NT.115; conditions: both partners purified
T1 construct: RhoA; also called unlabeled RhoA; source: recombinant, purified
T1 sequence (P61586 whole entry): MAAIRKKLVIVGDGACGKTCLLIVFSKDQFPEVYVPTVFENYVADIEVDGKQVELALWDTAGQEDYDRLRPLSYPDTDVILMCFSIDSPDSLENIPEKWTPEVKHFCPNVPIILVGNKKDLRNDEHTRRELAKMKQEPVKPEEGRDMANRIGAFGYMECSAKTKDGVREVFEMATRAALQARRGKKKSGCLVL

Molecule: CCC(C)(C)C(=O)O[C@H]1C[C@@H](C)C=C2C=C[C@H](C)[C@H](CC[C@@H]3C[C@@H](O)CC(=O)O3)[C@H]21 [simvastatin]
diuresis and urine osmolality [1]: reduced diuresis and increased urine osmolality

Molecule: C=C[C@@]1(C)CC(=O)[C@]2(O)[C@@]3(C)[C@@H](O)CCC(C)(C)[C@@H]3[C@H](O)[C@H](OC(C)=O)[C@@]2(C)O1 [forskolin, reference compound]
insertion of AQP2 into the plasma membrane [2]: induced the membrane insertion of AQP2
F-actin ([3]; Scaff10-8 30 μM alone, forskolin alone): caused depolymerization
localization of AQP2 ([3]; Scaff10-8 30 μM, 1 h, no forskolin, forskolin 10 μM, 30 min): induced its redistribution to the plasma membrane

Kd (untagged RhoA): 42 µM
B1: GFP-AKAP-Lbc/DHPH (domain or fragment)
chain: EAESWSRIIDSKFLKQQKKDVVKRQEVIYELMQTEFHHVRTLKIMSGVYSQGMMADLLFEQQMVEKLFPCLDELISIHSQFFQRILERKKESLVDKSEKNFLIKRIGDVLVNQFSGENAERLKKTYGKFCGQHNQSVNYFKDLYAKDKRFQAFVKKKMSSSVVRRLGIPECILLVTQRITKYPVLFQRILQCTKDNEVEQEDLAQSLSLVKDVIGAVDSKVASYEKKVRLNEIYTKTDSKSIMRMKSGQMFAKEDLKRKKLVRDGSVFLKNAAGRLKEVQAVLLTDILVFLQEKDQKYIFASLDQKSTVISLKKLIVREVAHEEKGLFLISMGMTDPEMVEVHASSKEERNSWIQIIQDTINTL
modifications: GFP and His6 tags left out. Limits are codons 1972-2335, from bp 5,914-7,005 of CCDS32320.1 (human CDS); the nucleotide changes only removed rare codons. The range encloses the annotated DH …
